From publication PMC7551609 (Viruses, 2020)
Entries after “also recorded” stand apart in the source; their conditions may differ. Counter-ions that a name gives are not always drawn. Like-named read-outs stand apart in the source and are kept apart here.

Tests used:
[1] = MTT cell viability in A549 cells; format: cell-based, human; conditions: human, highest concentration used 50.00 µM, sentence also cites [17]
ZIKV Paraiba/2015 [2] = assay: Viral inhibition assay, post-infection treatment, Vero cells; format: cell-based, Zika virus; conditions: for EC50: ZIKV Paraiba/2015, Vero cells, post-infection treatment, 36 h; for MIC: read-out: Post-treatment MIC (maximum effective concentration)
ZIKV MR-766 strain = assay: Viral inhibition assay, post-treatment, old World strain, Vero cells; format: cell-based, Zika virus; conditions: for EC50 / MIC: Zika virus; for EC50: old World ZIKV MR-766, Vero cells, post-treatment; for MIC: old World ZIKV MR-766 strain, read-out: MR766 MIC (maximum effective concentration)
[3] = MTT cell viability assay in Vero cells; format: cell-based, African green monkey; conditions: African green monkey, confluent monolayers; non-infected Vero cells, 36 h post-treatment
ZIKV Paraiba/2015 [4] = assay: Viral inhibition assay, co-treatment, Vero cells; format: cell-based, Zika virus; conditions: for Co-treatment MIC (maximum effective concentration): Vero cells, ZIKV Paraiba/2015, co-treatment
ZIKV PRVABC59 strain = assay: Viral inhibition assay, post-treatment, new World strain, Vero cells; format: cell-based, Zika virus; conditions: for EC50 / MIC: Zika virus; for EC50: new World ZIKV PRVABC59, Vero cells, post-treatment, 48 h; for MIC: new World ZIKV PRVABC59, read-out: PRVABC59 MIC (maximum effective concentration)
[5] = XTT cell proliferation in A549 cells; format: cell-based, human; conditions: human, highest concentration used 50.00 µM, sentence also cites [17]
ZIKV MR-766 [6] = conditions: ZIKV MR-766, Vero cells; cited from earlier work
ZIKV Paraiba/2015 [7] = assay: Viral inhibition assay, post-treatment, human A549 cells; format: cell-based, Zika virus; conditions: for inhibitor category based on SI-MTT and SI-XTT: Paraiba/2015, A549 cells; for MIC / EC50: Zika virus; for MIC: in Homo sapiens, read-out: A549 cells MIC (maximum effective concentration); for EC50: ZIKV Paraiba/2015, A549 cells, post-treatment, 36 h
[8] = XTT cell proliferation assay in Vero cells; format: cell-based, African green monkey; conditions: African green monkey, confluent monolayers; non-infected Vero cells, 36 h post-treatment
ZIKV Paraiba/2015 [9] = assay: Growth kinetics inhibition assay (infectious viral progeny), Vero cells; format: cell-based, Zika virus
ZIKV MR-766 [10] = conditions: ZIKV MR-766, Vero cells, pre-treatment conditions; cited from earlier work
ZIKV Paraiba/2015 [11] = assay: Viral inhibition assay, pre-treatment (prophylactic), Vero cells; format: cell-based, Zika virus; conditions: for MIC / EC50: Zika virus; for MIC: read-out: Pre-treatment MIC (maximum effective concentration); for EC50: ZIKV Paraiba/2015, Vero cells, pre-treatment 12 h before infection; for inhibitor category based on SI-MTT / inhibitor category based on SI-XTT: pre-treatment, Paraiba/2015, Vero
ZIKV SL1602 strain = conditions: ZIKV SL1602, Vero cells; cited from earlier work
ZIKV MEX_I_7 strain = conditions: ZIKV MEX_I_7, Huh7, HeLa and HAEC cells; cited from earlier work
ZIKV-MEX-2-81 = conditions: ZIKV MEX-2-81, U2OS cells; cited from earlier work
ZIKV PRVABC59 = conditions: ZIKV PRVABC59, Vero cells; cited from earlier work
[12] = test system: ZIKV cocktail of MR-766, FSS13025, and MEX-2-81 strains; conditions: JEG-3 and HBME cells; cited from earlier work
ZIKV FB-GWUH-2016 = test system: ZIKV FB-GWUH-2016; set-up: method as in ref 27 = [27]; conditions: ZIKV FB-GWUH-2016, RPE cells; cited from earlier work
[13] = test system: ZIKV cocktail of MR-766, FSS13025, and MEX-2-81; conditions: JEG-3 cells, ZIKV cocktail of MR-766, FSS13025, MEX-2-81; cited from earlier work
[14] = post-treatment, Paraiba/2015, Vero
[15] = co-treatment, Paraiba/2015, Vero
[16] = 0.1, 1, 10 EC50, all time points (24, 48, 72 h post-treatment), MOI 0.1

Row | Compound | CC50 [1] | EC50 (ZIKV Paraiba/2015 [2]) | EC50 (ZIKV Paraiba/2015 [2]; Zika virus, Vero) | MIC (ZIKV Paraiba/2015 [2]; Zika virus) | inhibitor category based on SI-MTT and SI-XTT (ZIKV Paraiba/2015 [2]; [14]) | inhibitor category based on SI-MTT and SI-XTT (ZIKV MR-766 strain; ZIKV MR-766, Vero) | EC50 (ZIKV MR-766 strain) | MIC (ZIKV MR-766 strain) | CC50 at 36 h [3] | Co-treatment MIC (maximum effective concentration) (ZIKV Paraiba/2015 [4]) | EC50 (ZIKV PRVABC59 strain) | MIC (ZIKV PRVABC59 strain) | CC50 [5] | inhibitor category based on SI-MTT and SI-XTT (ZIKV Paraiba/2015 [7]) | MIC (ZIKV Paraiba/2015 [7]) | EC50 (ZIKV Paraiba/2015 [7]) | CC50 at 36 h [8] | MIC (ZIKV Paraiba/2015 [11]) | EC50 (ZIKV Paraiba/2015 [11]) | inhibitor category based on SI-MTT (ZIKV Paraiba/2015 [11]) | further results
1 | Cc1c(-c2ccc(-c3ccccc3F)cc2)nc2ccc(F)cc2c1C(=O)O [Brequinar, Brequinar sodium salt hydrate] | > 50 µM | 1.51 µM | 1.03 µM | > 100 µM | most potent; also recorded: potent | most potent; also recorded: potent | 0.05 µM | < 0.13 µM | 238 µM | < 33.30 µM | 0.08 µM | < 0.41 µM | > 50 µM | Potent | < 0.04 µM | 0.02 µM | > 1350 µM | > 100 µM | 42.5 µM | moderate | inhibitor category based on SI-MTT and SI-XTT (ZIKV Paraiba/2015 [4]; [15]): moderate; inhibitor category based on SI-MTT and SI-XTT (ZIKV PRVABC59 strain; ZIKV PRVABC59, Vero): potent; EC50 (ZIKV MR-766 [6]): 0.08 µM; effect on production of infectious viral progeny (viral titers) (ZIKV Paraiba/2015 [9]; [16]): dose-dependent inhibitory effect; effect on production of infectious viral progeny (viral titers) (ZIKV Paraiba/2015 [9]; 10 EC50, 24 and 48 h post-treatment): Complete inhibition; EC50 (ZIKV MR-766 [10]): 0.3 µM; inhibitor category based on SI-XTT (ZIKV Paraiba/2015 [11]): weakest and weak
2 | COc1c(C)c2c(c(O)c1C/C=C(\C)CCC(=O)O)C(=O)OC2 [Mycophenolic acid] | > 50 µM | 4.26 µM | 4.34 µM | > 100 µM | moderate to weak | most potent; also recorded: potent | 0.15 µM | < 1.23 µM | 275 µM | < 11.10 µM | 0.22 µM | < 1.23 µM | > 50 µM | weak | < 11.1 µM | 0.65 µM | > 1350 µM | > 100 µM | 7.58 µM | Potent; also recorded: moderate | EC50 (ZIKV SL1602 strain): 0.42 µM; EC50 (ZIKV MEX_I_7 strain): < 2 µM; EC50 (ZIKV-MEX-2-81): 0.4 µM; EC50 (ZIKV PRVABC59): 0.14 µM; inhibitor category based on SI-MTT (ZIKV Paraiba/2015 [4]; [15]): weak; inhibitor category based on SI-MTT and SI-XTT (ZIKV Paraiba/2015 [4]; [15]): weak; inhibitor category based on SI-MTT and SI-XTT (ZIKV PRVABC59 strain; ZIKV PRVABC59, Vero): potent; EC50 [12]: 0.1 µM; EC50 (ZIKV MR-766 [6]): 0.11 µM; effect on production of infectious viral progeny (viral titers) (ZIKV Paraiba/2015 [9]; [16]): dose-dependent inhibitory effect; inhibitor category based on SI-XTT (ZIKV Paraiba/2015 [11]): potent
3 | COC1=CC(c2cc3ccccc3[nH]2)=N/C1=C\c1[nH]c(C)cc1C [Obatoclax, Obatoclax mesylate] | > 50 µM | 0.63 µM | 0.58 µM | < 0.01 µM | moderate to weak |  | 0.37 µM | < 1.23 µM | 17.6 µM | < 3.70 µM | 0.41 µM | < 1.23 µM | > 50 µM | weak | < 1.23 µM | 0.64 µM | 60.4 µM | < 11.1 µM | 2.96 µM | moderate | EC50 (ZIKV FB-GWUH-2016): 0.04 µM; inhibitor category based on SI-MTT (ZIKV Paraiba/2015 [2]; [14]): weak; inhibitor category based on SI-XTT (ZIKV Paraiba/2015 [2]; [14]): potent; inhibitor category based on SI-MTT (ZIKV MR-766 strain; ZIKV MR-766, Vero): weak; inhibitor category based on SI-XTT (ZIKV MR-766 strain; ZIKV MR-766, Vero): moderate; inhibitor category based on SI-MTT (ZIKV Paraiba/2015 [4]; [15]): Potent; inhibitor category based on SI-XTT (ZIKV Paraiba/2015 [4]; [15]): potent; inhibitory activity [13]: did not exhibit inhibitory activity; inhibitor category based on SI-MTT (ZIKV PRVABC59 strain; ZIKV PRVABC59, Vero): weak; inhibitor category based on SI-XTT (ZIKV PRVABC59 strain; ZIKV PRVABC59, Vero): potent; effect on production of infectious viral progeny (viral titers) (ZIKV Paraiba/2015 [9]; 1 EC50, all the analyzed times, may be caused by toxicity): Complete inhibition
